pKi: −log10 of the molar value.
Key:
[1] = biological target: T1, human recombinant GABAA α5β3γ2 receptor (Homo sapiens (Human), UniProt P18507+P31644); test: Receptor binding assay, [3H]Ro151788 displacement on membranes of HEK cells; conditions: [3H]Ro151788 0.5 nM, HEK cell membranes, 60 minutes at 4° C.; read-out: hGABAA α5 Ki
Procedure: The GABAA α5β3γ2 protein used for the receptor binding assay was derived from membranes produced from HEK cells (Millipore CYL3073) expressing the human recombinant GABAA α5β3γ2 receptor. Cells were stored and cultured in-house according to the instructions provided by the vendor (Millipor). Cell pellet was homogenized in 10 times modified Krebs Henseleit buffer (membrane preparation buffer): 20 mM Tris, 120 mM NaCl, 100 mM KCl, 25 mM CaCl2 and 25 mM MgCl2 pH=7.4 at 4° C. using Ultra Turrax (Janke&Kunkel) maximal speed for 15 seconds. The homogenate was centrifuged at 40,000 g for 30 minutes at 4° C. Supernatant was discarded and the resulting pellet was washed in membrane preparation buffer. Pellet was resuspended in membrane preparation buffer and aliquots of 1.4 mL ampulles were stored at −70° C. until use.
Receptor binding assays were performed in 96-well format in deep-well plates. For each 96-well plate one ampulle of membrane homogenate was thawed and diluted in binding buffer (50 mM Tris pH=7.4, 100 mM KCl) and 200 μL was dispensed into each well. Radioligand [^3H]Rol51788 (Perkin Elmer: NET757250UC) was prepared in binding buffer and added to each well in 50 μL volume to give final concentration of 0.5 nM. Test compounds in suitable concentration(s) were added in additional 50 μL. The final assay volume was 300 μL. Incubation was carried out for 60 minutes at 4° C. For non-specific binding 10 μM unlabeled diazepam was used. […] The plate was read in Microbeta (Perkin Elmer).
The specific radioligand binding (SB) was defined as the difference between total binding (Tot) and the non-specific binding (NSB). Results are expressed as a percent inhibition of specific binding obtained in the presence of compound of interest.
For IC50 and Ki determination a minimum of six drug concentrations in triplicate were used. […] Ki values (i.e. inhibition constants) were calculated using the Cheng-Prusoff equation Ki=IC50/[1+(L/KD)], where [L] is the radioligand concentration and KD the affinity of the labelled ligand for receptor. KD was determined from the Saturation analyses.

[2] = biological target: human recombinant GABAA α1β3γ2 receptor (Homo sapiens (Human), UniProt P14867+P18507); test: Functional assay, QPatch automated patch clamp, modulation of GABA-evoked current; type: cell-based; conditions: tested at 10 μM; GABA 1 μM; HEK293 cells; percentage modulation of peak current
Procedure: (§1) Human HEK293 cell lines expressing GABAA α1β3γ2 and GABAA α5β3γ2 receptors were used in functional assays using the QPatch automated patch clamp system.
(§2) HEK293 cell lines stably expressing human recombinant GABAA α1β3γ2 receptor subunits (Millipore, CYL3073) or human recombinant GABAA α5β3γ2 receptor subunits (Millipore, CYL3053) were cultured in DMEM supplemented with 10% FBS (Gibco), passed two times per week and plated on Petri dishes previously coated with poly-d-lysine.
(§3) Automated whole-cell patch clamp recordings were made from cells 2-4 days after plating. Cells were detached using trypsin/EDTA (Sigma) treatment (2 minutes in 0.25% trypsin at 37° C.), then, after centrifugation (125G, 3 min, 2×), resuspended in a serum-free based media (Gibco, CHO-S-SFM-II) containing 12.5 mM HEPES, 1×penicillin-streptomycin-amphotericin (SigmaMix) and soybean trypsin inhibitor (Sigma, 0.04 mg/ml).
(§4) Cell suspension, as well as the extracellular solution (130 mM NaCl, 5 mM KCl, 5.1 mM HEPES, 4.9 mM HEPES-Na, 10 mM CaCl2), 2 mM MgCl2, 10 mM glucose and 0.1% DMSO, pH=7.35-7.4) and the intracellular solution (80 mM KCl, 50 mM KF, 36 mM KOH, 10 mM EGTA, 10 mM HEPES, 1.75 mM MgCl2, 0.5 mM CaCl2), 4 mM Na2ATP. 14 mM phosphocreatine, 50 U/ml creatine-phosphokinase, 0.3 mM GTP, pH=7.25-7.3) were added to the QPatch-HTX automated patch clamp system (Sophion) in single-cell mode at room temperature. Inward currents were evoked at a holding potential of −80 mV by 3-s-long applications of the control agonist GABA at sub-maximal effective concentration (1 μM) at 2-4-min intervals first in concentration-matched DMSO (0.1 or 0.3%) control solution for five times, then in the presence of the test compound for four times, finally in control solution again for three times (wash-out). At the end of the experiment 100 μM GABA was applied to saturate the GABA-response and to assess the efficacy of the control GABA application. Current signals were low-pass filtered at 100 Hz and recorded at a sampling rate of 1 kHz.
(§5) The percentage modulation was calculated from the comparison of GAB A-evoked peak current amplitudes in the presence and absence of the test compound.

[3] = biological target: T1, human recombinant GABAA α5β3γ2 receptor; test: as above; type: cell-based; conditions: tested at 10 μM; GABA 1 μM; HEK293 cells; percentage modulation of peak current
Procedure: as §1, §2, §3, §4, §5

T1 sequence (P31644 32-462): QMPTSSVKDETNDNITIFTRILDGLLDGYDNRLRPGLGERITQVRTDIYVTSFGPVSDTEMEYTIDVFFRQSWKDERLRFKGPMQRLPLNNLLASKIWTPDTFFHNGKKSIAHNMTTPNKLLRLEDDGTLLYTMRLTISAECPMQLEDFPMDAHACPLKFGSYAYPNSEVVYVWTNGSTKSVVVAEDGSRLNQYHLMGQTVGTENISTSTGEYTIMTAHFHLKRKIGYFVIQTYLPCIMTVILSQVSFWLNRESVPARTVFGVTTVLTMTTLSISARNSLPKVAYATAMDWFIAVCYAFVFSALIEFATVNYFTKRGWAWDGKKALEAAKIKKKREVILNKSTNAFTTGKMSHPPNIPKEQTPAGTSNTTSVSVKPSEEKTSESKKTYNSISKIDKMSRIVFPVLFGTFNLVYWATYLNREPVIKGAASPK
T1 sequence (P18507 40-475): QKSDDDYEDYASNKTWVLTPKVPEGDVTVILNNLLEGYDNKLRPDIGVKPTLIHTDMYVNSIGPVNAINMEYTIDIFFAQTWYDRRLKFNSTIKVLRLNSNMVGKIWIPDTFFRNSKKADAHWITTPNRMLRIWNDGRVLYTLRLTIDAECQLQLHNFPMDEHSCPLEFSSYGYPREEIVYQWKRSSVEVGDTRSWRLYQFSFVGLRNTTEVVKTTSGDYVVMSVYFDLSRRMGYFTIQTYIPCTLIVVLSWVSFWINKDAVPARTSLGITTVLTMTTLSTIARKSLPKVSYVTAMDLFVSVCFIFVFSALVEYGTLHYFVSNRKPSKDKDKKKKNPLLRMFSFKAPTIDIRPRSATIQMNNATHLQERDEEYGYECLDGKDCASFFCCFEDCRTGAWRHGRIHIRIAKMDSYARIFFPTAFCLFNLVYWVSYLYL
T1 sequence (P28472 26-473 partner): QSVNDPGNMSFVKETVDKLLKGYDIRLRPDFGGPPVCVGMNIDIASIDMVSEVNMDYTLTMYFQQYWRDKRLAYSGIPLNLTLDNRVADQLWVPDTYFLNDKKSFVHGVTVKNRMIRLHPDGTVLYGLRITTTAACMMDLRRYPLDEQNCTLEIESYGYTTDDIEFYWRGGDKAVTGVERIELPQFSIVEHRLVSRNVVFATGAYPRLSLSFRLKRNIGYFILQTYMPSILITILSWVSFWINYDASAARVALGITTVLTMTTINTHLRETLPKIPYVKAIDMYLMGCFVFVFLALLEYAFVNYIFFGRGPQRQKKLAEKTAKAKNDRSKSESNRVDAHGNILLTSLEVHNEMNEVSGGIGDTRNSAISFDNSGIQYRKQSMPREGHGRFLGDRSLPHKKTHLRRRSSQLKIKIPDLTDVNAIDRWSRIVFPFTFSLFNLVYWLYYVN
Chain of human recombinant GABAA α1β3γ2 receptor (P14867 28-456): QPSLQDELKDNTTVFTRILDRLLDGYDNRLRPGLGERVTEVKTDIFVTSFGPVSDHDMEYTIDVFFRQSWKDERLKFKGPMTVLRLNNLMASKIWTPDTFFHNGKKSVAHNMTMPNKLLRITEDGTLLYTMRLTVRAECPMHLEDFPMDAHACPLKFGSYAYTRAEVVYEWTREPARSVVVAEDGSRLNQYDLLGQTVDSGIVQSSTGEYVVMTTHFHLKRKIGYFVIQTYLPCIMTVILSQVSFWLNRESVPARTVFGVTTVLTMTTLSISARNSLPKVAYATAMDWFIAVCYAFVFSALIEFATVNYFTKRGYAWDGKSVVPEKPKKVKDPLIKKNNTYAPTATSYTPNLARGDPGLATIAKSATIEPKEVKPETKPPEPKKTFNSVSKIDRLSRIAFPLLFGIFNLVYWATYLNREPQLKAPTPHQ
Chain of human recombinant GABAA α1β3γ2 receptor (P18507 40-475): as the sequence (P18507 40-475) above
Chain of human recombinant GABAA α1β3γ2 receptor (P28472 26-473 partner): as the sequence (P28472 26-473 partner) above

## CC(=O)N1Cc2cnc(OCc3c(C)nnn3-c3ccc(F)cc3)cc2C1 [Example 1, 1-(6-{[1-(4-fluorophenyl)-4-methyl-1H-1,2,3-triazol-5-yl]methoxy}-1,3-dihydro-2H-pyrrolo[3,4-c]pyridin-2-yl)ethanone]
[1]
  pKi: 8.00
[2]
  hGABAA α1 efficacy: −2%
[3]
  hGABAA α5 efficacy: −43%

## CC(=O)N1Cc2cnc(OCc3c(-c4ccc(F)cc4)nnn3C)cc2C1 [Example 2, 1-(6-{[4-(4-fluorophenyl)-1-methyl-1H-1,2,3-triazol-5-yl]methoxy}-1,3-dihydro-2H-pyrrolo[3,4-c]pyridin-2-yl)ethanone]
[1]
  pKi: 7.49
[2]
  hGABAA α1 efficacy: −6%
[3]
  hGABAA α5 efficacy: −47%

## CC(=O)N1Cc2cnc(OCc3c(-c4ccc(F)cc4)noc3C)cc2C1 [Example 3, 1-(6-{[3-(4-fluorophenyl)-5-methyl-1,2-oxazol-4-yl]methoxy}-1,3-dihydro-2H-pyrrolo[3,4-c]pyridin-2-yl)ethanone]
[1]
  pKi: 9.05
[2]
  hGABAA α1 efficacy: 13%
[3]
  hGABAA α5 efficacy: −44%
